How the values were obtained:
Type in all cases: cell-based, human
[1] = test system: C8161; assay: Effect of recombinant immune interferon (IFN-γ) on growth (cell numbers); details: 96 hr
Excerpt: (§1) Cell lines and culture conditions. H0-1 is a melanotic melanoma cell line produced from a metastatic inguinal node lesion from a person and was used between passages 170 and 200 (Giovanella et al., 1976; Huberman et al., 1979; Fisher et al., 1985). C8161 is a highly metastatic amelanotic human melanoma cell line derived from an abdominal wall metastasis (Welch et al., 1991). FM516-SV is a normal human melanocyte culture immortalized by the SV40 T-antigen gene (Melber et al., 1989). The WM35 cell line was isolated from a patient with a radial growth phase primary melanoma (Herlyn, 1990). The WM278 cell line is from a patient with an early vertical growth phase primary melanoma (Herlyn, 1990). Cultures were grown at 37° C. in a 95% air 5% C02-humidified incubator in Dulbecco's modified Eagle's medium (DMEM) supplemented with 5 or 10% fetal bovine serum. Cultures were maintained in the logarithmic phase of growth by subculturing (1:5 or 1:10) prior to confluence approximately every 4 to 7 D.

[2] = test system: FM516-SV; assay: as above; details: 96 hr
Excerpt: as §1

[3] = test system: H0-1; assay: as above; details: 96 hr
Excerpt: as §1

[4] = test system: WM278; assay: as above; details: 96 hr
Excerpt: as §1

[5] = test system: WM35; assay: as above; details: 96 hr
Excerpt: as §1

[6] = test system: mda-9 expression in H0-1 cells; assay: mda-9 RNA expression by Northern blotting, equalized to GAPDH; details: H0-1
Experimental: FIG. 1. Temporal expression of mda-9 in H0-1 cells exposed to IFN-β+MEZ. RNAs were isolated from untreated and H0-1 cells treated with IFN-β+MEZ (2000 U/ml+10 ng/ml) for 0.25, 0.5, 1, 2, 4, 8, 12 and 24 h. Ten micrograms of total cellular RNA were separated on 1% agarose gel, transferred to nylon membranes, sequentially hybridized with an mda-9 and then a GAPDH probe, and then exposed to autoradiography.
FIG. 4. Effect of interferons on mda-9 expression in H0-1 cells. H0-1 cells were grown for 96 h in the absence or presence of IFN-α (100 and 1000 U/ml), IFN-β (100 and 1000 U/ml) or IFN-γ (100 U/ml) and RNA was analyzed as described in FIG. 1.
FIGS. 9A-9B. Temporal and dose kinetics of IFN-γ enhancement in mda-9 expression in H0-1 human melanoma cells. H0-1 cells were treated for the indicated time (FIG. 9A) and dose (FIG. 9B) of IFN-γ, RNA was then isolated and analyzed by Northern blotting. […] Replicate samples varied by ≦15%.
Cell Lines and Culture Conditions. H0-1 is a melanotic melanoma cell line produced from a metastatic inguinal lymph node lesion from a person and was used between passages 150 and 175 (13,21,22). FM516-SV is a normal human melanocyte culture immortalized by the SV40 T-antigen gene (23). Additional melanoma cell lines established from patients with metastatic melanomas that were evaluated, include LO-1, SH-1, WM239, MeWo, SKMEL-p53 wt (containing a wild-type p53 gene) and SKMEL-p53 mut (containing a mutant p53 gene) (13,21,24). Cultures were grown at 37° C. in a 95% air 5% C02-humidified incubator in Dulbecco's modified Eagle's medium (DMEM) supplemented with 5 or 10% fetal bovine serum (Hyclone, Utah). Cultures were maintained in the logarithmic phase of growth by subculturing (1:5 or 1:10) prior to confluence approximately every 4 to 7 d. For determining steady-state RNA expression, cultures were seeded at 1.5×10^6 cells per 10-cm tissue culture plate, and 24 h later the medium was changed without inducers or with IFN-β (2000 U/ml), MEZ (10 ng/ml) or IFN-β+MEZ (2000 U/ml+10 ng/ml). Total cytoplasmic RNA was isolated at various time points and analyzed for mda-9 and GAPDH expression.
RNA Isolation, Northern Blotting and Southern Blotting of Genomic DNAs. Total cellular RNA was isolated by the guanidinium/phenol procedure and Northern blotting was performed as described (30-32). Ten μg of RNA were denatured with glyoxal/dimethyl sulfoxide (DMSO), electrophoresed on 1.0% agarose gels, transferred to nylon membranes and hybridized to a ^32P-labeled mda-9 probe and then after stripping the membranes were hybridized to a ^32P-labeled rat GAPDH probe (33) as described previously (30-32). […] RNA blots were quantitated by densitometric analysis using a Molecular Dynamics densitometer (Sunnyvale, Calif.) (34). […]

## IFN-γ: Recombinant human IFN-γ (type II, immune interferon)
[1]; 1 U/ml of IFN-γ
  average cell number ± S.D.: 24.4 ± 0.8
  percent of cell number reduction versus control: 30%
[1]; 10 U/ml of IFN-γ
  average cell number ± S.D.: 25.1 ± 0.8
  percent of cell number reduction versus control: 28%
[1]; 100 U/ml of IFN-γ
  average cell number ± S.D.: 22.2 ± 1.4
  percent of cell number reduction versus control: 36%
[2]; 1 U/ml of IFN-γ
  average cell number ± S.D.: 16.8 ± 0.5
  percent of cell number reduction versus control: 19%
[2]; 10 U/ml of IFN-γ
  average cell number ± S.D.: 9.8 ± 0.6
  percent of cell number reduction versus control: 52%
[2]; 100 U/ml of IFN-γ
  average cell number ± S.D.: 5.1 ± 0.3
  percent of cell number reduction versus control: 75%
[3]; 1 U/ml of IFN-γ
  average cell number ± S.D.: 15.8 ± 0.5
  percent of cell number reduction versus control: 22%
[3]; 10 U/ml of IFN-γ
  average cell number ± S.D.: 15.4 ± 0.3
  percent of cell number reduction versus control: 24%
[3]; 100 U/ml of IFN-γ
  average cell number ± S.D.: 11.5 ± 1.3
  percent of cell number reduction versus control: 44%
[4]; 1 U/ml of IFN-γ
  average cell number ± S.D.: 14.9 ± 0.8
  percent of cell number reduction versus control: 33%
[4]; 10 U/ml of IFN-γ
  average cell number ± S.D.: 12.7 ± 1.0
  percent of cell number reduction versus control: 42%
[4]; 100 U/ml of IFN-γ
  average cell number ± S.D.: 12.5 ± 0.6
  percent of cell number reduction versus control: 44%
[5]; 1 U/ml of IFN-γ
  average cell number ± S.D.: 84.8 ± 6.7
  percent of cell number reduction versus control: 2%
[5]; 10 U/ml of IFN-γ
  average cell number ± S.D.: 62.7 ± 4.3
  percent of cell number reduction versus control: 28%
[5]; 100 U/ml of IFN-γ
  average cell number ± S.D.: 28.2 ± 1.7
  percent of cell number reduction versus control: 67%
[6]; 100 U/ml of recombinant human IFN-γ
  time at which enhanced mda-9 expression is apparent: ≤ 2 h
[6]; IFN-γ dose-response
  dose giving maximum enhancing effects on mda-9 expression: 10 U/ml
  low dose at which mda-9 expression is elevated: 0.1 U/ml
